Patent US20070021391A1, “Preventive/remedy for urinary disturbance” (priority 2003, published 2007)
Structures can show the parent of a compound that is named as a salt. Where two headings read alike, the source gives them in different places.

What was measured:
[1] = system: Hartley male guinea pig, urethane anesthesia; experiment: Pressure/flow study using guinea pig under continuous phenylephrine (Example 4); type: in vivo; conditions: i.v., phenylephrine 3 μg/animal/min
Experimental: A parameter (the maximum urine flow rate) at urination and a parameter (bladder compliance) at the collection of urine were also measured by a method similar as Example 3 shown below, with respect to the compounds B1 to B6 ([Table 8]).
A Hartley male guinea pig of 4 to 5 weeks old (Japan SLC) was used. After urethane anesthesia, the medial incision of the lower abdomen was carried out, and the bladder was exposed. Two injection needles (20G) with which a polyethylene tube (PE-100) was linked were inserted in the bladder, and one needle was used for injection of saline and another needle was used for measurement of the inner pressure of the bladder. A catheter was inserted in fernoral vein, and phenylephrine was continuously administrated at a flow rate of 3 μg/animal/min. Saline was continuously injected at a speed of 18 mL/h, the injection was stopped after intermittent urination was confirmed 2 times at minimum, and the saline in the bladder was removed by suction. Injection was started again, and the injection was stopped when the raise of the inner pressure of the bladder just before urination was confirmed. The amount of urine eliminated was measured by an electronic weighing machine and the inner pressure of the bladder was measured using a pressure transducer. The analogue data of the weight of urine and the inner pressure of the bladder were inputted in a multi-channel data analyzer (MP-100A-CE, Biopac systems), and analyzed by a proprietary software (Acqknowledge, Biopac systems). As the parameters, the maximum urine flow rate and bladder compliance were measured. Saline in the bladder was extracted after 10 min of the intravenous administration of the compound, and injection was started again to carry out measurement. The compounds were dissolved with DMSO so that administration volume was 0.5 mL/kg. The change rate of respective parameters before and after administration of the compounds was calculated and the calibration of significant difference was carried out by a solvent administration group and t calibration.

[2] = biological target: T1, butyrylcholine esterase of human serum origin (Homo sapiens, UniProt P06276); experiment: biochemical; type: biochemical; conditions: for IC50: mean value of twice tests
T1 construct: butyrylcholine esterase of human serum origin; purchased Biogenesis, Poole, UK; host or cells: human serum
T1 sequence (P06276 29-602): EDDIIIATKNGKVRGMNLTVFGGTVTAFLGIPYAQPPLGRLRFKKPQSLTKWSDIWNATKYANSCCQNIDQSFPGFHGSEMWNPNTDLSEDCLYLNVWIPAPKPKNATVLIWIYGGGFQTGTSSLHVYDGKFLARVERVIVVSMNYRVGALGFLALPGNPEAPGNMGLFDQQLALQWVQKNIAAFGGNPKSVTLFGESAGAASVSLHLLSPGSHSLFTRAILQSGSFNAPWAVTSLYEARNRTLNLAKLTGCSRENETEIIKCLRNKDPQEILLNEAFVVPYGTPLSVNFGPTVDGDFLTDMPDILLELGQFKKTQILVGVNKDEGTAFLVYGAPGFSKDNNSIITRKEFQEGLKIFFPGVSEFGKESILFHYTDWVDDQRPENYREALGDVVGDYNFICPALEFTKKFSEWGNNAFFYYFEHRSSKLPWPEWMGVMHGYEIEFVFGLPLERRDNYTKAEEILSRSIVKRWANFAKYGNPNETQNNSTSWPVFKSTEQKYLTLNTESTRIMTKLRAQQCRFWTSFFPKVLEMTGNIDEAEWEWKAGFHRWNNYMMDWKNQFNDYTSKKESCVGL
Experimental: The AChE inhibitory activity and the BuChE inhibitory activity were determined by a thiocholine method (Ellman method) using acetylcholine esterase of human erythrocyte origin (Sigma, St. Louis, Mo., USA) and butyrylcholine esterase of human serum origin (Biogenesis, Poole, UK). Acetylcholine esterase or butyrylcholine esterase was diluted to a concentration of 0.2 IU/mL with 80 mM tris-HCL buffers (pH=7.4) containing 0.3% bovine serum albumin (BSA) to prepare an enzyme preparation. […] The stock solution was diluted at 3-fold common ratio with 10% DMSO and 80 mM tris-HCl buffers containing 0.3% BSA. On a 96 wells microplate, 20 μL of the drug solution with a given concentration, 30 μL of 80 mM tris-HCl buffers containing 0.3% BSA and 50 μL of the enzyme preparation were distributed, and incubated at room temperature for 1 hour after shaking for 10 seconds. […] For the respective drugs, the test was repeated twice. The % of control of the increase in light absorption was calculated at each concentration with respect to the respective drugs. % of control=increase in light absorption of drug/increase in light absorption of control×100

[3] = biological target: T2, acetylcholine esterase of human erythrocyte origin (Homo sapiens, UniProt P22303); experiment: biochemical; type: biochemical; conditions: for IC50: mean value of twice tests
T2 construct: acetylcholine esterase of human erythrocyte origin; purchased Sigma, St. Louis, Mo., USA; host or cells: human erythrocytes
T2 sequence (P22303 32-617 isoform P22303-2 limits assumed): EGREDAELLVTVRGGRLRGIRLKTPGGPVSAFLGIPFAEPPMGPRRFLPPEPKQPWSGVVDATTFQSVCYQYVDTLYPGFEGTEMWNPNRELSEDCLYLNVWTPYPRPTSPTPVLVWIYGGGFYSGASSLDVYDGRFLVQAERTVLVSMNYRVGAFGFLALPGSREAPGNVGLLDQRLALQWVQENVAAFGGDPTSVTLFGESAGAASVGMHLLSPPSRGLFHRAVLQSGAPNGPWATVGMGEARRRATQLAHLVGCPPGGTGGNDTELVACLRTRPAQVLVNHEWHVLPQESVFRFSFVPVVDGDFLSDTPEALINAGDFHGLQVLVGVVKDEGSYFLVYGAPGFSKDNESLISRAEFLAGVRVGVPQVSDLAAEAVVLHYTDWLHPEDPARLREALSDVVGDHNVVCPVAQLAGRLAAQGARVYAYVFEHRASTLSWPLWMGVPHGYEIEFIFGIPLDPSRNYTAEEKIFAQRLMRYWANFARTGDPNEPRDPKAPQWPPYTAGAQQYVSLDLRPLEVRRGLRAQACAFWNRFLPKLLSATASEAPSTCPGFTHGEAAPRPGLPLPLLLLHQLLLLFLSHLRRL

bladder muscle = system: bladder muscle; parameters: species or system guinea pig; conditions: for Tension (%): 30 minutes, change of basic tension, 100 mM KCl contraction = 100%; for effect on basic tension: drug alone
[4] = system: Hartley male guinea pig, urethane anesthesia; experiment: Pressure/flow study using guinea pig (Example 3); type: in vivo; conditions: for Amount of urination, proportion for value before administration (%) / At maximum urine flow rate Inner pressure of bladder, proportion for value before administration (%) / Maximum urine flow rate, proportion for value before administration (%): i.v.; for Bladder compliance, proportion for value before administration (%) / Bladder volume, proportion for value before administration (%): iv; for change of the parameters at urination and at collection of urine (text): intravenous administration
Experimental: A Hartley male guinea pig of 5 weeks old (Japan SLC) was used. After urethane anesthesia, the medial incision of the lower abdomen was carried out, and the bladder was exposed. Two injection needles (20G) with which a polyethylene tube (PE-100) was linked were inserted in the bladder, and one needle was used for injection of saline and another needle was used for measurement of the inner pressure of the bladder. The injection of saline was continuously carried out at a rate of 18 mL/h using a syringe pump (SP-100S, JMS, and Hiroshima), the injection was stopped after intermittent urination was confirmed 3 times at minimum, and the saline in the bladder was removed by suction. Injection was started again, and the injection was stopped when the raise of the inner pressure of the bladder just before urination was confirmed. The amount of urine excreted was measured by an electronic weighing machine (HX-400, A&D, and Tokyo) and the inner pressure of the bladder was measured using a pressure transducer (AP641G, NIPPON KODEN Corporation). The analogue data of the weight of urine and the inner pressure of the bladder were inputted in a multi-channel data analyzer (MP-100A-CE, Biopac systems), and analyzed by a proprietary software (Acqknowledge, Biopac systems). The sampling interval of data was 0.1 second and a low pass filter was applied to the data of discharge amount and urine flow rate at 0.5 Hz in order to remove noise. A delay time of 0.1 second in weighing the urine was rectified, and the urine flow rate was determined by differentiating the value of discharge amount. After a value before twice administration of the drug was measured, the drugs (the compound A, distigmine, neostigigmine and bethanechol) were intravenously administrated. Saline in the bladder was extracted after 10 minutes of administration of the compound A, bethanechol and neostigigmine and after 30 minutes of administration of distigmine, and injection was started again to measure data. The drugs were dissolved with distilled water so that administration volume was 0.5 mL/kg. Parameters (bladder volume, the amount of urination, the maximum urine flow rate, the inner pressure of the bladder at the maximum urine flow, bladder compliance) below were measured. The bladder compliance was calculated from intersection point (the threshold of bladder volume, threshold pressure) which was obtained by determining regression line in the respective curves of the inner pressure of the bladder at collection of urine and urinary reflex. The change rate before and after administration of the drug was calculated for the respective parameters and the calibration of significant difference was carried out by a solvent administration group and Dunnett calibration (Table 6 and Table 7).

How did the “Bladder compliance, proportion for value before administration” value ([1]; 0.1 mg/kg) turn out when `O=C(CCCCNCCc1ccccc1Cl)c1cc2c3c(c1)CC(=O)N3CCC2` [Compound B1, 8-[5-[[2-(2-chlorophenyl)ethyl]amino]pentanoyl]-5,6-dihydro-4H-pyrrolo[3,2,1-ij]quinolin-2(1H)-one) hydrochloride] was run?
Its value is 105.1 ± 12.9.

And the “Maximum urine flow rate, proportion for value before administration” value ([1]; 0.1 mg/kg)?
The value was 170.4 ± 27.8.

What about the IC50 ([2]; read-out: BuChE IC50) of the same compound?
The IC50 was 5700 nM.

What about the Selectivity b/a ([3]; BuChE IC50/AChE IC50 (Table 3)) of the same compound?
The Selectivity b/a was 100.

What about the IC50 ([3]; read-out: AchE IC50) of the same compound?
Its IC50 is 56 nM.

`CN(C)C(=O)Oc1ccc[n+](C)c1` [Pyridostigmine] was tested. Which “Tension (%)” value (bladder muscle; 0.3 μM) did it give?
The value was −1.49 ± 0.52%.

What about the “Tension (%)” value (bladder muscle; 1 μM) of the same compound?
Its value is 0.04 ± 0.38%.

And the “Tension (%)” value (bladder muscle; 3 μM)?
The value was 2.87 ± 0.85 %.

And the “Tension (%)” value (bladder muscle; 10 μM)?
The value was 7.71 ± 1.30 %.

What about the “Tension (%)” value (bladder muscle; 30 μM) of the same compound?
Its value is 14.38 ± 1.62 %.

And the “effect on basic tension” value (bladder muscle)?
The value was “increased basic tension significantly and concentration-dependently”.

`COc1ccccc1CCNCCCCC(=O)c1ccc2c(c1)n(C)c(=O)n2C` [Compound B5, 5-[5-[[2-(2-methoxyphenyl)ethyl]amino]pentanoyl]-1,3-dimethyl-1,3-dihydro-2H-benzoimidazol-2-one) hydrochloride] was tested. Which “Bladder compliance, proportion for value before administration” value ([1]; 0.03 mg/kg) did it give?
The value was 95.0 ± 4.3.

What about the “Maximum urine flow rate, proportion for value before administration” value ([1]; 0.03 mg/kg) of the same compound?
Its value is 135.5 ± 19.1.

And the IC50 ([2]; read-out: BuChE IC50)?
Its IC50 is greater than 10000 nM.

And the Selectivity b/a ([3]; BuChE IC50/AChE IC50 (Table 3))?
The Selectivity b/a was greater than 150.

What about the IC50 ([3]; read-out: AchE IC50) of the same compound?
The IC50 was 65 nM.

What does the source list for `CC(C[N+](C)(C)C)OC(N)=O` (stereo not drawn) [Bethanechol]?
Amount of urination, proportion for value before administration (%) ([4]; 0.1 mg/kg): 74.5 ± 13.1%; At maximum urine flow rate Inner pressure of bladder, proportion for value before administration (%) ([4]; 0.1 mg/kg): 107.0 ± 7.1%; Maximum urine flow rate, proportion for value before administration (%) ([4]; 0.1 mg/kg): 72.8 ± 9.8%; Bladder compliance, proportion for value before administration (%) ([4]; 0.1 mg/kg): 75.7 ± 9.8%; Bladder volume, proportion for value before administration (%) ([4]; 0.1 mg/kg): 86.0 ± 2.5%; Amount of urination, proportion for value before administration (%) ([4]; 0.3 mg/kg): 63.5 ± 8.5%; At maximum urine flow rate Inner pressure of bladder, proportion for value before administration (%) ([4]; 0.3 mg/kg): 99.2 ± 6.4%; Maximum urine flow rate, proportion for value before administration (%) ([4]; 0.3 mg/kg): 81.00 ± 12.1%; Bladder compliance, proportion for value before administration (%) ([4]; 0.3 mg/kg): 62.6 ± 6.8 %; Bladder volume, proportion for value before administration (%) ([4]; 0.3 mg/kg): 85.3 ± 6.3%; Amount of urination, proportion for value before administration (%) ([4]; 1 mg/kg): 39.1 ± 8.0 %; At maximum urine flow rate Inner pressure of bladder, proportion for value before administration (%) ([4]; 1 mg/kg): 104.9 ± 13.0%; Maximum urine flow rate, proportion for value before administration (%) ([4]; 1 mg/kg): 66.1 ± 12.3%; Bladder compliance, proportion for value before administration (%) ([4]; 1 mg/kg): 45.3 ± 4.9 %; Bladder volume, proportion for value before administration (%) ([4]; 1 mg/kg): 66.3 ± 6.0 %; change of the parameters at urination and at collection of urine (text) [4]: lowered the amount of urination, bladder volume and bladder compliance significantly

With `CN(CCCCCCN(C)C(=O)Oc1ccc[n+](C)c1)C(=O)Oc1ccc[n+](C)c1` [Distigmine] as the compound, how does the “Amount of urination, proportion for value before administration (%)” value (from here on “Amount of urination, proportion … (%)”) ([4]; 0.03 mg/kg) read?
Its value is 73.9 ± 4.4%.

What about the “At maximum urine flow rate Inner pressure of bladder, proportion for value before administration (%)” value (from here on “At maximum urine flow rate Inner pressure … (%)”) ([4]; 0.03 mg/kg) of the same compound?
The value was 112.7 ± 6.6%.

What about the “Maximum urine flow rate, proportion for value before administration (%)” value (from here on “Maximum urine flow rate, proportion … (%)”) ([4]; 0.03 mg/kg) of the same compound?
Its value is 75.1 ± 6.8%.

And the “Bladder compliance, proportion for value before administration (%)” value (from here on “Bladder compliance, proportion … (%)”) ([4]; 0.03 mg/kg)?
The value was 64.6 ± 6.0%.

And the “Bladder volume, proportion for value before administration (%)” value (“Bladder volume, proportion … (%)” for short) ([4]; 0.03 mg/kg)?
Its value is 80.6 ± 3.3%.

And the “Amount of urination, proportion … (%)” value ([4]; 0.1 mg/kg)?
Its value is 89.8 ± 10.3%.

And the “At maximum urine flow rate Inner pressure … (%)” value ([4]; 0.1 mg/kg)?
Its value is 115.9 ± 4.2%.

What about the “Maximum urine flow rate, proportion … (%)” value ([4]; 0.1 mg/kg) of the same compound?
Its value is 76.4 ± 5.8%.

And the “Bladder compliance, proportion … (%)” value ([4]; 0.1 mg/kg)?
Its value is 53.4 ± 2.2 %.

What about the “Bladder volume, proportion … (%)” value ([4]; 0.1 mg/kg) of the same compound?
Its value is 83.6 ± 5.9%.

What about the “Amount of urination, proportion … (%)” value ([4]; 0.3 mg/kg) of the same compound?
The value was 65.8 ± 11.9%.

What about the “At maximum urine flow rate Inner pressure … (%)” value ([4]; 0.3 mg/kg) of the same compound?
The value was 142.4 ± 6.1 %.

And the “Maximum urine flow rate, proportion … (%)” value ([4]; 0.3 mg/kg)?
Its value is 49.2 ± 7.0%.

What about the “Bladder compliance, proportion … (%)” value ([4]; 0.3 mg/kg) of the same compound?
Its value is 68.3 ± 7.9%.

What about the “Bladder volume, proportion … (%)” value ([4]; 0.3 mg/kg) of the same compound?
Its value is 80.0 ± 4.5%.

What about the “change of the parameters at urination and at collection of urine (text)” value [4] of the same compound?
Its value is “lowered the bladder compliance significantly”.

What about the “change of the parameters at urination and at collection of urine (text)” value ([4]; listed as distigmine) of the same compound?
Its value is “did not show clear action for the amount of urination and the maximum urine flow rate and increased urination pressure significantly”.

And the “Tension (%)” value (bladder muscle; 0.1 μM)?
The value was −1.49 ± 0.30%.

What about the “Tension (%)” value (bladder muscle; 0.3 μM) of the same compound?
The value was −0.78 ± 0.50%.

And the “Tension (%)” value (bladder muscle; 1 μM)?
The value was −0.35 ± 0.73%.

What about the “Tension (%)” value (bladder muscle; 3 μM) of the same compound?
Its value is 0.64 ± 0.49 %.

And the “effect on basic tension” value (bladder muscle)?
The value was “increased tension slightly but significantly”.

And the “inhibitory activity for human butyrylcholine esterase” value [2]?
The value was “inhibitory activity was confirmed”.

And the IC50 ([2]; read-out: Butyrylcholine esterase IC50)?
The IC50 was 540 nM.

And the “inhibition of the activity of human acetylcholine esterase” value [3]?
The value was “inhibited the activity of human acetylcholine esterase”.

What about the “selectivity for acetylcholine esterase inhibitory activity (text, words)” value [3] of the same compound?
The value was “had scarcely selectivity”.

And the Selectivity b/a ([3]; BuChE IC50/AChE IC50 (Table 2))?
Its Selectivity b/a is 1.4.

And the IC50 ([3]; read-out: Acetylcholine esterase IC50)?
The IC50 was 380 nM.
